Laboratory results as given in article PMC10276006, “Mechanisms of simultaneous linear and nonlinear computations at the mammalian cone photoreceptor synapse” (Nature Communications, 2023).

Assays:
[1] = tested on: T1, cb1a cell KARs (kainate receptors of cb1a Off bipolar cells); settings: mean of n = 6 somas (Hill n 1.11); 35 µM GYKI 53655 blocks AMPA receptors; pH 7.4; 32-33 °C
T1 construct: gene GRIK1

[2] = tested on: T1, cb1a cell KARs (kainate receptors of cb1a Off bipolar cells); settings: desensitization by glutamate; supplement only
[3] = tested on: T2, cone glutamate transporter (TBOA-sensitive; EAAT5 immunolabelled at cone terminal); settings: read-out: steady state EC50
T2 construct: gene SLC1A7

EC50 [1]: 1400 ± 160 µM
EC50 [3]: 0.71 µM
Structure (SMILES): N[C@@H](CCC(=O)O)C(=O)O [glutamate]
IC50 [2]: 30.4 ± 10.2 µM
